Where two headings read alike, the source gives them in different places. Bounds are passed on as bounds.

In one data set the test system is LX-2 cells. In words: Cytotoxicity, CellTiter-Glo Luminescent Cell Viability Assay. As for the experimental part:
(§1) LX-2 cells were seeded into 96 well plates in the presence of compounds and allowed to grow for 72 hours before CellTiter-Glo® Luminescent Cell Viability Assay was carried out according the manufacturer's instruction.
On the technique in general: Cellular ATP, detected with luciferase, serves as a proxy for viable cell number.

Data set [1] deals with Human hepatic stellate cell LX-2. Put plainly: LX-2 Fibrosis Assay (inhibition of collagen production, TGF-b stimulated). Type of data set: cell-based. The method, then: Human hepatic stellate cell LX-2 were grown in DMEM (Invitrogen, 11960) supplied with 1% MEM Non-Essential Amino Acids (Invitrogen, 11140-050), 2% fetal bovine serum (Hyclone, SV30087.03), Penicillin (100 U/mL)-streptomycin (100 μg/mL) (Millipore, TMS-AB2-C) and 2 mM L-Glutamine (Invitrogen, 25030-001). After the cells grew in 12-well plates for 24 hours, the cell culture medium was changed to the same as above except using 0.4% fetal bovine serum. After 20 hour growth in the reduced serum medium, the cells were treated with indicated doses of compounds for 30 minutes. Subsequently, the cells were stimulated with 4 ng/mL TGF-b (R&D Systems, 240-B-002) for 48 hours. The cells were rinsed twice with DPBS before being harvested with 100 μL RIPA buffer (Sigma, R0278) supplemented with protease inhibitor cocktail (Roche, 04693132001) at 4° C. The total protein in each sample was quantified using BCA Protein Assay Kit (Pierce™, 23227) and equal amount of total protein of each sample was subject to Western blot analysis. Antibodies used were mouse anti-α-Actin (SPM332) (sc-365970), mouse anti-CTGF (E5) (sc-365970), and mouse anti-collagen α1 (3G3) (sc-293182), from Santa Cruz Biotechnologies; and mouse anti-GAPDH (6C5) (EMD Millipore, MAB374). […] As such, these compounds be used as inhibitors of fibrosis by inhibiting function of the discoidin domain receptor family.

Data set [2] relates to primary tumor cells freshly isolated from PC-07-0024 patient derived xenograft (PDX) tumor model. In words: Pancreatic cancer tumor chemosensitivity assay (TCA), anti-proliferation, PC-07-0024. The data set is classed as cell-based. As to conditions: for IC50: Homo sapiens. As for the experimental part: (§2) Compound 1 is compared to Gemcitabine, which is a chemotherapy drug used in various types of cancers (e.g., breast cancer, ovarian cancer, non-small cell lung cancer, pancreatic cancer, and bladder cancer). The compounds, at 30 μM, 3 fold serial dilution, are tested in primary tumor cells freshly isolated from PC-07-0024 and LU-01-0523 patient derived xenograft (PDX) tumor model using tumor chemosensitivity assay (TCA).
(§3) The study was performed as follows. Add 195 μL of assay medium into each well of the V-bottom plate; then transfer 5 μL of the stock compound solution of each concentration from the stock plate (400× stock). Add 5 μL of DMSO into the Blank and Control wells. Pipette up and down to mix well. This V-plate is designated as the 10× concentrate compound plate.
(§4) For cell viability test, add compounds as below. Then incubate the plates at 37° C., 5% CO2, 95% air and 100% relative humidity for 3 days or 6 days. For day 0 plate, add 15 μL of the DMSO-medium into the Control wells. The final DMSO concentration was 0.25%. Proceed to cell viability assay. For TCA plates, add 15 μL of the compound-medium from the 10× concentrate compound plate into the cells in 96-well assay plate according to the plate map. Add 15 μL of the DMSO-medium into the Blank and Control wells. The final DMSO concentration was 0.25%. The assay is performed similar to the protocol of the bile duct cancer study provided above.

For data set [3], the system named is primary tumor cells freshly isolated from patient derived xenograft tumor model. Put plainly: Cholangiocarcinoma (bile duct cancer) tumor chemosensitivity assay (TCA), anti-proliferation. The data set is classed as cell-based. Particulars: for Max (%) / Min (%): inhibition rate. As for the experimental part:
Cholangiocarcinoma (Bile Duct Cancer)
All the compounds were tested starting from 30 μM, 3-fold serial dilution.
Add 195 μL of assay medium into each well of the V-bottom plate; then transfer 5 μL of the stock compound solution of each concentration from the stock plate (400× stock). Add 5 μL of DMSO into the Blank and Control wells. Pipette up and down to mix well. This V-plate is designated as the 10× concentrate compound plate.
For cell viability test, add compounds as below. Then incubate the plates at 37° C., 5% CO2, 95% air and 100% relative humidity for 3 days or 6 days. For day 0 plate, add 15 μL of the DMSO-medium into the Control wells. The final DMSO concentration was 0.25%. Proceed to cell viability assay. For TCA plates, add 15 μL of the compound-medium from the 10× concentrate compound plate into the cells in 96-well assay plate according to the plate map. Add 15 μL of the DMSO-medium into the Blank and Control wells. The final DMSO concentration was 0.25%.
The procedures were performed according to the Promega CellTiter-Glo Luminescent Cell Viability Assay Kit (Promega-G7573): Thaw the CellTiter-Glo buffer and equilibrate to room temperature prior to use; Equilibrate the lyophilized CellTiter-Glo Substrate to room temperature prior to use; Transfer the entire liquid volume of CellTiter-Glo Buffer into the amber bottle containing CellTiter-Glo Substrate to reconstitute the lyophilized enzyme/substrate mixture. This forms the CellTiter-Glo Reagent; Mix by gently vortexing to obtain a homogeneous solution; Equilibrate the plate and its contents to room temperature for approximately 30 minutes; Add 75 μL (equal to the half volume of culture medium present in each well) CellTiter-Glo Reagent in each well. Cover plates with aluminum foil to protect from light; Mix contents for 2 minutes on an orbital shaker to induce cell lysis; Allow the plate to incubate at room temperature for 10 minutes to stabilize luminescent signal; and Transfer the mixture of cell and CTG buffer to the detection 96 well plate and record luminescence on the 2104 EnVision plate reader. An ATP standard curve at the same time points is prepared.
Inhibition rate (IR) of the tested compounds was determined by the following formula: IR (%)=(1−(RLU compound−RLU blank)/(RLU control−RLU blank))*100%. The inhibitions of different dose of compound were calculated in Excel file, and then were used to plot inhibition curve and evaluate related parameters, such as Min, Max and IC50. The data were interpreted by GraphPad Prism software. […]

Data set [4] in a line: Cytotoxicity, CellTiter-Glo Luminescent Cell Viability Assay. As to conditions: human, LX-2 cells. As for the experimental part: as §1
For data set [5], the system named is primary tumor cells freshly isolated from LU-01-0523 patient derived xenograft (PDX) tumor model. In words: Tumor chemosensitivity assay (TCA), anti-proliferation, LU-01-0523. Type of data set: cell-based. As to conditions: for IC50: Homo sapiens. As for the experimental part: as §2, §3, §4
[6] abbreviates: 4 ng/mL TGF-b, 48 hours, read-out: Inhibition of Collagen Production in LX-2 Cells IC50.
Where [7] appears, read: 72 h, read-out: Relative IC50 (μM).
[8] abbreviates: 144 h, read-out: Relative IC50 (μM).

In the case of `Cc1ccc2c(Nc3cc(CN4CCCC4)cc(C(F)(F)F)c3)noc2c1C#Cc1cnc2cccnn12` [Compound 113], the midpoint of cytotoxicity in the data set on LX-2 cells, the CC50, lay at 4250 nM. In addition, the half-inhibitory concentration (IC50) (commonly the point on the concentration scale where inhibition reaches its midpoint) in data set [1] (setting [6]) is 2580 nM.
Consider `Cc1ccc2c(Nc3cccc(OC(F)(F)F)c3)noc2c1C#Cc1cnc2cccnn12` [Compound 120], for which the midpoint of cytotoxicity in the data set with LX-2 cells, the CC50, lay at 2410 nM. Further, the IC50 in data set [1] (setting [6]) amounted to 2950 nM.
`Cc1ccc2c(Nc3cc(CN4CCOCC4)cc(C(F)(F)F)c3)noc2c1C#Cc1cnc2cccnn12` [Compound 111]: the CC50 – broadly, the concentration giving 50% cytotoxicity – in the data set on LX-2 cells is greater than 42300 nM. The IC50 in data set [1] (setting [6]) was determined as 1950 nM.
Turning to `Cc1ccc2c(Nc3cccc(C(F)(F)F)c3)noc2c1C#Cc1cnc2cccnn12` [Compound 1, 7-(Imidazo[1,2-b]pyridazin-3-ylethynyl)-6-methyl-N-(3-(trifluoromethyl)phenyl)benzo[d]isoxazol-3-amine], the IC50 in data set [2] (setting [7]) was 5.7 µM; in data set [2] (setting [8]), 2.65 µM; in data set [3] (Homo sapiens, 72 h), greater than 30000 nM; in data set [3] (Homo sapiens, 144 h) it was greater than 30000 nM; in data set [1] (Homo sapiens, LX-2, 48 h, read-out: Inhibition of Collagen Production in LX-2 Cells IC50(nM)) it was 13 nM; in data set [5] (setting [7]), greater than 30 µM. In addition, in data set [5] (setting [8]), the IC50 is greater than 30 µM. Besides, the “Bottom (%)” value is listed as −11.36% in data set [2] (PC-07-0024, Day 3); −26.68% in data set [2] (PC-07-0024, Day 6); −5.49% in data set [5] (LU-01-0523, Day 3); −16.14% in data set [5] (LU-01-0523, Day 6). Moreover, the “Top (%)” value came out at 42.29% in data set [2] (PC-07-0024, Day 3); 37.60% in data set [2] (PC-07-0024, Day 6); 100.00% in data set [5] (LU-01-0523, Day 3); 0.00% in data set [5] (LU-01-0523, Day 6). Further, the “Max (%)” value in data set [3] (Day 3) is 2.56%; in data set [3] (Day 6), 2.88%. Further, the figures for the “Min (%)” value in data set [3] (Day 3) and in data set [3] (Day 6) were −8.75% and −27.04%, respectively. It took 3000 nM to reach half-maximal cytotoxicity in data set [4] (CC50 at 72 h).
Take `Cc1nc(Nc2ncc(C(=O)Nc3c(C)cccc3Cl)s2)cc(N2CCN(CCO)CC2)n1` [Dasatinib, reference compound]: the IC50 in data set [3] (Homo sapiens, 72 h, Day 3, read-out: IC50) is 22400 nM; in data set [3] (Homo sapiens, 144 h, Day 6, read-out: IC50), 15200 nM. In addition, the “Max (%)” value in data set [3] (Day 3) was determined as 66.18%; in data set [3] (Day 6), 89.06%. For the same compound, the “Min (%)” value in data set [3] (Day 3) amounted to 8.00%; in data set [3] (Day 6), 14.03%.
`Cc1ccc2c(Nc3cncc(C(F)(F)F)c3)noc2c1C#Cc1cnc2cccnn12` [Compound 121]: the IC50 in data set [3] (Day 3, read-out: IC50) was greater than 30000 nM; in data set [3] (Day 6, read-out: IC50), 29100 nM; in data set [1] (setting [6]), 62 nM. The “Max (%)” value is listed as 49.93% in data set [3] (Day 3) and 51.14% in data set [3] (Day 6). The figures for the “Min (%)” value in data set [3] (Day 3) and in data set [3] (Day 6) were −11.42% and −18.96%, respectively. Moreover, in the data set with LX-2 cells, the CC50 is greater than 40000 nM.
In the data set with LX-2 cells, `Cc1ccc2c(Nc3cc(CN4CCOCC4)cc(C(C)(C)C#N)c3)noc2c1C#Cc1cnc2cccnn12` [Compound 117] returned a cytotoxic concentration (CC50) greater than 57200 nM. For the same compound, in data set [1] (setting [6]), the IC50 was 160 nM.
In the data set on LX-2 cells, `Cc1ccc2c(Nc3cc(CNC4CC4)cc(C(F)(F)F)c3)noc2c1C#Cc1cnc2cccnn12` [Compound 112] displayed a CC50 of 1360 nM. Further, in data set [1] (setting [6]), the IC50 amounted to 1660 nM.
As for `Cc1ccc2c(Nc3cccc(C(C)(C)C#N)c3)noc2c1C#Cc1cnc2cccnn12` [Compound 115], the CC50 in the data set on LX-2 cells worked out at 1900 nM. The IC50 in data set [1] (setting [6]) is 502 nM.
On to `Nc1ccn([C@@H]2O[C@H](CO)[C@@H](O)C2(F)F)c(=O)n1` [Gemcitabine], for which the IC50 was 4 µM in data set [2] (72 h, PC-07-0024, Day 3, read-out: Relative IC50); 0.009 µM in data set [2] (144 h, PC-07-0024, Day 6, data exclsn, read-out: Relative IC50); 5.93 µM in data set [2] (144 h, PC-07-0024, Day 6, read-out: Relative IC50); greater than 30 µM in data set [5] (72 h, LU-01-0523, Day 3, read-out: Relative IC50); 1.34 µM in data set [5] (144 h, LU-01-0523, Day 6, read-out: Relative IC50). Also, the “Bottom (%)” value in data set [2] (PC-07-0024, Day 3) came out at 10.21%; in data set [2] (PC-07-0024, Day 6), 23.38%; in data set [2] (PC-07-0024, Day 6, data exclsn), 0.00%; in data set [5] (LU-01-0523, Day 3), 4.79%; in data set [5] (LU-01-0523, Day 6), 0.00%. Besides, the “Top (%)” value in data set [2] (PC-07-0024, Day 3) was 46.53%; in data set [2] (PC-07-0024, Day 6) it was 72.30%; in data set [2] (PC-07-0024, Day 6, data exclsn), 30.34%; in data set [5] (LU-01-0523, Day 3), 100.00%; in data set [5] (LU-01-0523, Day 6), 100.00%.

(Values after patent US11427591B2, “Kinase inhibitors” (priority 2018, dated 2022).)
